Converted amounts (≈) assume the structure as drawn. Like-named read-outs stand apart in the source and are kept apart here.
What was measured:
C. parapsilosis = C. parapsilosis MMX 2323 (ATCC 22019), cited from earlier work
E. faecium = experiment: Broth microdilution MIC (Example 5); format: cell-based
Description: (§1) Test and Comparator Agents: The test agents were stored at room temperature until assayed. […] The stock solutions were allowed to stand for at least 1 hr prior to use to auto-sterilize.
(§2) TestMedia: Test media were prepared and stored in accordance with guidelines from CLSI (4, 6, 7).
(§3) Broth Microdilution MC Testing (Aerobic Bacteria and Yeast): The broth microdilution assay method employed for the susceptibility testing of aerobic bacteria (excluding N. gonorrhoeae which was evaluated by agar dilution) and yeast essentially followed the procedures described by CLSI (3, 4, 7, 8) and employed automated liquid handlers to conduct serial dilutions and liquid transfers. […] These would become the ‘mother plates’ from which ‘daughter’ or test plates would be prepared. The drugs (300 μL at 40× the desired top concentration in the test plates) were dispensed into the appropriate well in Column 1 of the mother plates. The Biomek 2000 was used to make serial two-fold dilutions through Column 11 in the “mother plate”. The wells of Column 12 contained no drug and ultimately served as the organism growth control wells.
(§4) The daughter plates were prepared using the Biomek FX which transferred 5 μL of drug solution from each well of a mother plate to the corresponding well of the correct daughter plate in a single step.
(§5) A standardized inoculum of each organism was prepared per CLSI methods (3, 7). Isolated colonies of each test isolate were picked from the primary plate and a suspension was prepared to equal a 0.5 McFarland turbidity standard. Standardized suspensions were then diluted […] (1:100 for yeast, 1:20 for bacteria). After dilution, the inoculum suspensions were then transferred to compartments of sterile reservoirs divided by length (Beckman Coulter), and the Biomek 2000 was used to inoculate all plates. Daughter plates were placed on the Biomek 2000 in reverse orientation so that plates were inoculated from low to high drug concentration.
(§6) The Biomek 2000 delivered 10 μL of standardized inoculum into each well of the appropriate daughter plate for an additional 1:20 dilution.
(§7) Plates were stacked 4 high, covered with a lid on the top plate, placed into plastic bags, and incubated at 35° C. for approximately 24-48 hr for all yeast isolates and 16-24 hr for aerobic bacteria. Plates were viewed from the bottom using a plate viewer. […] MIC endpoints for the test agents and control compounds were read per CLSI criteria (3, 7).

S. pneumoniae [1] = experiment: Broth microdilution MIC (Example 5); format: cell-based; settings: Streptococcus pneumoniae
Description: as §1, §2, §3, §4, §5, §6, §7

S. agalactiae = experiment: Broth microdilution MIC (Example 5); format: cell-based; settings: Streptococcus agalactiae
Description: as §1, §2, §3, §4, §5, §6, §7

S. pyogenes = experiment: Broth microdilution MIC (Example 5); format: cell-based
Description: as §1, §2, §3, §4, §5, §6, §7

[2] = system: vancomycin-intermediate Staphylococcus aureus; experiment: Broth microdilution MIC (Example 6); format: cell-based; settings: Staphylococcus aureus, NRS 13 / VISA, read-out: MIC values
Description: Test Compounds: The test agents BisEDT (MB-1-B3; Lot No. ED268-1-11-01), MB-2B, and MB-6 were stored at room temperature, in the dark, until assayed. The solvent and diluent for the test agents was DMSO (Sigma; St. Louis, MO; Lot No. SHBB9319V) and the prepared stock concentration was 6,464 μg/mL (101× the final test concentration).
Test compounds were evaluated at a concentration range of 0.06-64 μg/mL. For Gram-negative test isolates, amikacin and ceftazidime (alone and with clavulanate at a fixed concentration of 4 μg/mL) were evaluated over a concentration range of 0.06-64 μg/mL; meropenem and levofloxacin were evaluated over a concentration range of 0.008-8 μg/mL. For the testing of S. aureus, clindamycin, daptomycin, levofloxacin and vancomycin were evaluated at a concentration range of 0.008-8 μg/mL; linezolid was tested from 0.03-32 μg/mL.
Media: Cation-adjusted Mueller Hinton broth (CAMHB; BD; Lot No. 8190586) was used as the medium for testing (2, 3). For testing daptomycin, calcium was supplemented with […] Ca^2+, resulting in a final concentration of […] Ca^2+ (2, 3).
MIC Assay Procedure: MIC values were determined using a broth microdilution procedure described by CLSI (2, 3). Automated liquid handlers (Multidrop 384, Labsystems, Helsinki, Finland; Biomek 2000 and Biomek F X, Beckman Coulter, Fullerton CA) were used to conduct serial dilutions and liquid transfers.
To prepare the drug mother plates, which would provide the serial drug dilutions for the replicate daughter plates, the wells of columns 2 through 12 of standard 96-well microdilution plates (Costar 3795) were filled with 150 μl of the appropriate diluent for each row of drug. The test articles and comparator compounds (300 μl at 101× the highest concentration to be tested) were dispensed into the appropriate wells in column 1. The Biomek 2000 was then used to make 2-fold serial dilutions in the mother plates from column 1 through column 11. The wells of column 12 contained no drug and served as the organism growth control wells for the assay.
The daughter plates were loaded with 190 μL per well of RPMI using the Multidrop 384. The test panels were prepared on the Biomek FX instrument which transferred 2 μL of drug solution from each well of a mother plate to the corresponding well of each daughter plate in a single step.
A standardized inoculum of each test organism was prepared per CLSI methods to equal a 0.5 McFarland standard, followed by a dilution of 1:20. The plates were then inoculated with 10 μL of the diluted inoculum using the Biomek 2000 from low to high drug concentration resulting in a final concentration of approximately 5×10^5 CFU/mL.
Plates were stacked 3-4 high, covered with a lid on the top plate, placed into plastic bags, and incubated at 35° C. for 16 to 20 hr (vancomycin was read for S. aureus after 24 hr incubation time). The MIC was recorded as the lowest concentration of drug that inhibited visible growth of the organism.

E. faecalis = experiment: Broth microdilution MIC (Example 5); format: cell-based, Enterococcus faecalis; settings: VRE
Description: as §1, §2, §3, §4, §5, §6, §7

S. pneumoniae [3] = settings: S. pneumoniae MMX 6837 (ATCC 49619); cited from earlier work
S. aureus = experiment: Broth microdilution MIC (Example 5); format: cell-based, Staphylococcus aureus; settings: Staphylococcus aureus
Description: as §1, §2, §3, §4, §5, §6, §7

SMILES: OC(Cn1cncn1)(Cn1cncn1)c1ccc(F)cc1F [Fluconazole]
- CLSI QC range of MIC (C. parapsilosis; 24 hr): 0.5 to 4 µg/mL
- CLSI QC range of MIC (C. parapsilosis; 48 hr): 1 to 4 µg/mL

SMILES: CN[C@H](CC(C)C)C(=O)N[C@H]1C(=O)N[C@@H](CC(N)=O)C(=O)N[C@H]2C(=O)N[C@H]3C(=O)N[C@H](C(=O)N[C@H](C(=O)O)c4cc(O)cc(O)c4-c4cc3ccc4O)[C@H](O)c3ccc(c(Cl)c3)Oc3cc2cc(c3O[C@@H]2O[C@H](CO)[C@@H](O)[C@H](O)[C@H]2O[C@H]2C[C@](C)(N)[C@H](O)[C@H](C)O2)Oc2ccc(cc2Cl)[C@H]1O [Vancomycin]
- MIC (E. faecium; E. faecium MMX 485, VRE vanA): >64 µg/mL
- MIC (E. faecium; Enterococcus faecium, VRE): > 64 µg/mL
- MIC (S. pneumoniae [1]; ATCC49619, S. pneumoniae MMX 6837 (ATCC 49619), QC): 0.25 µg/mL (≈ 0.173 µM)
- MIC (S. pneumoniae [1]; S. pneumoniae MMX 880, LevR SXTR CCR EryR PenR): 0.5 µg/mL (≈ 0.345 µM)
- MIC (S. pneumoniae [1]; S. pneumoniae MMX 937, MemR SXTR CCR EryR PenR): 0.5 µg/mL (≈ 0.345 µM)
- MIC (S. pneumoniae [1]; S. pneumoniae MMX 3959, CCR EryR): 0.5 µg/mL (≈ 0.345 µM)
- MIC (S. pneumoniae [1]; S. pneumoniae MMX 5440, MemR SXTR CCR EryR PenR): 0.25 µg/mL (≈ 0.173 µM)
- MIC (S. pneumoniae [1]; S. pneumoniae MMX 5445, MemR SXTR CCR EryR PenR): 0.25 µg/mL (≈ 0.173 µM)
- MIC (S. pneumoniae [1]; S. pneumoniae MMX 8133, MemR SXTR CCR EryR PenR): 0.25 µg/mL (≈ 0.173 µM)
- MIC (S. agalactiae; S. agalactiae MMX 3741, ERYR CCR): 0.5 µg/mL (≈ 0.345 µM)
- MIC (S. agalactiae; S. agalactiae MMX 3743, ERYR CCR): 0.5 µg/mL (≈ 0.345 µM)
- MIC (S. agalactiae; S. agalactiae MMX 4077, ERYR CCR): 0.5 µg/mL (≈ 0.345 µM)
- MIC (S. agalactiae; S. agalactiae MMX 4079, ERYR CCR PenR MEMR): 2 µg/mL (≈ 1.38 µM)
- MIC (S. agalactiae; S. agalactiae MMX 4086, ERYR CCR): 1 µg/mL (≈ 0.69 µM)
- MIC (S. pyogenes; S. pyogenes MMX 3820, ERYR CLIR): 0.5 µg/mL (≈ 0.345 µM)
- MIC (S. pyogenes; S. pyogenes MMX 3919, ERYR): 0.5 µg/mL (≈ 0.345 µM)
- MIC (S. pyogenes; S. pyogenes MMX 3929, ERYR CCR): 0.5 µg/mL (≈ 0.345 µM)
- MIC (S. pyogenes; S. pyogenes MMX 5091, ERYR CCR): 0.5 µg/mL (≈ 0.345 µM)
- MIC (S. pyogenes; Streptococcus pyogenes): 0.5 µg/mL (≈ 0.345 µM)
- MIC [2]: 2 µg/mL
- MIC (E. faecalis; E. faecalis MMX 8961): >64 µg/mL
- MIC (E. faecalis; E. faecalis MMX 8962): >64 µg/mL
- MIC (E. faecalis; Enterococcus faecalis): > 64 µg/mL
- CLSI QC range of MIC (S. pneumoniae [3]): (0.12-0.5) μg/mL
- MIC (S. aureus; ATCC 29213 / MSSA, S. aureus MMX 101 (ATCC 29213), QC, MSSA): 1 µg/mL (≈ 0.69 µM)
- MIC (S. aureus; MRSA, S. aureus MMX 5373): 2 µg/mL (≈ 1.38 µM)
- MIC (S. aureus; MRSA, S. aureus MMX 6311): 0.25 µg/mL (≈ 0.173 µM)
- MIC (S. aureus; MRSA, S. aureus MMX 9203): 2 µg/mL (≈ 1.38 µM)
- MIC (S. aureus; MRSA, S. aureus MMX 9204): 1 µg/mL (≈ 0.69 µM)
- MIC (S. aureus; MRSA, S. aureus MMX 9205): 2 µg/mL (≈ 1.38 µM)
